Experimental data taken from US20260209297A1, “ANTIMICROBIAL PEPTIDES AND MODIFICATIONS THEREOF” (priority 2022, published 2026).
≈ marks a conversion by molar mass, not a printed value. Where two headings read alike, the source gives them in different places. Residues, ends and D or L forms follow the SMILES beside them.

Legend:
B. cinerea = test: MIC antifungal assay in SFM culture media (with or without added salts); format: cell-based, Botrytis cinerea
F. graminearum = format: cell-based, Fusarium graminearum; conditions: in vitro, low cationic conditions
F. oxysporum = test: MIC antifungal assay in SFM culture media; format: cell-based; conditions: in vitro, low cationic conditions
P. capsici [1] = test: MIC antifungal assay in SFM culture media; format: cell-based; conditions: in vitro, low cationic conditions
P. capsici [2] = test: Disease symptom reduction on tomato leaves; format: in vivo; conditions: compared with GMA4C_AC
Description: Antifungal activity in planta.

C. parapsilosis = test: MIC, CLSI M27/M38, half-strength potato dextrose broth; format: cell-based, Candida parapsilosis; conditions: C. parapsilosis ATCC 22019; Table 8
Protocol: MICs were determined at 24-72 hours.

Coccidioides sp. = format: cell-based; conditions: Table 8
[3] = system: Salmonella typhimurium var. Copenhagen; test: Antibacterial growth inhibition in Mueller-Hinton media (OD600); format: cell-based; conditions: 37° C. overnight
[4] = system: Enterotoxigenic E. coli-F4; test: as above; format: cell-based; conditions: 37° C. overnight
Protocol: Salmonella typhimurium var. Copenhagen, Enterotoxigenic E. coli-F4 and Listeria monocytogens (F5244) strains were grown overnight on an LB agar plate at 37_C. A small number of bacteria was scraped from the plate and added to Mueller-Hinton (MH) growth media and grown to log phase. Cells were diluted to 1-3×10^6 CFU/mL and 50 μl were added to each well in a polypropylene 96-well plate. Synthesized peptide GMA4C_V1A was diluted into 0.2% BSA, 0.01% acetic acid solution and added to the concentration of 0.2, 0.4, 0.80, 1.6, 3.25, 7.5, 15, 30 and 60 and 120 µM. Then, 50 μl of each peptide solution was added to 50 μl of bacterial cells. Plates were parafilmed and incubated at 37° C. overnight. The concentrations at which bacterial growth inhibition was determined based on the OD600 nm value at each concentration relative to the OD600 nm value of MH medium alone and that of bacterial growth in MH medium without any peptide.

L. monocytogenes F5244 = test: as above; format: cell-based, Listeria monocytogens; conditions: 37° C. overnight
Candida albicans = conditions: Table 8
Candida auris = conditions: Table 8
Aspergillus fumigatus = Aspergillus fumigatus AF293; Table 8

CC[C@H](C)[C@H](NC(=O)[C@H](CCCNC(=N)N)NC(=O)[C@@H](NC(=O)[C@H](CS)NC(=O)[C@H](Cc1ccccc1)NC(=O)[C@H](CS)NC(=O)[C@H](CCCNC(=N)N)NC(=O)[C@H](CCCNC(=N)N)NC(=O)[C@H](CCCNC(=N)N)NC(=O)[C@H](Cc1ccccc1)NC(=O)CNC(=O)[C@H](CCCCN)NC(=O)[C@H](CS)NC(=O)[C@H](CCCNC(=N)N)NC(=O)CNC(=O)CN)[C@@H](C)O)C(=O)N[C@@H](CS)C(N)=O [GMA4C_V1A] (H-GGRCKGFRRRCFCTRIC-NH2; N-terminus assumed)
fungal growth inhibition at 6 μM (B. cinerea; B. cinerea, in presence of 2 mM CaCl2, 6 μM): inhibit fungal growth
potency of activity relative to GMA4C_AC (B. cinerea; B. cinerea, in presence of 100 mM NaCl or 100 mM KCl): 2 fold
antifungal activity relative to the wild-type GMA4C_AC control, B. cinerea (B. cinerea; in vitro, low cationic conditions): equivalent
antifungal activity relative to the wild-type GMA4C_AC control, F. graminearum (F. graminearum): equivalent
antifungal activity relative to the wild-type GMA4C_AC control, F. oxysporum (F. oxysporum): equivalent
antifungal activity relative to the wild-type GMA4C_AC control, P. capsici (P. capsici [1]): equivalent
reducing disease symptoms caused by P. capsici (P. capsici [2]): more effective
MIC values (μg/ml) 100% (C. parapsilosis): 4 µg/mL (≈ 1.98 µM)
MIC values (μg/ml) 100% (Coccidioides sp.; Coccidioides sp. Cocci1): 8 µg/mL (≈ 3.96 µM)
MIC values (μg/ml) 100% (Coccidioides sp.; Coccidioides sp. Cocci2): 4 µg/mL (≈ 1.98 µM)
MIC values (μg/ml) 100% (Coccidioides sp.; Coccidioides sp. DI17-143): 8 µg/mL (≈ 3.96 µM)
Concentrations (in μM) at which growth inhibition was observed, S. Typhimurium var. Copenhagen [3]: 15 to 60 µM
Concentrations (in μM) at which growth inhibition was observed, Enterotoxigenic E. coli-F4 [4]: 7.5 to 60 µM
Concentrations (in μM) at which growth inhibition was observed, L. monocytogenes F5244 (L. monocytogenes F5244): 15 to 30 µM
MIC values (μg/ml) 100% (Candida albicans; Candida albicans ATCC 90028): 8 µg/mL (≈ 3.96 µM)
MIC values (μg/ml) 100% (Candida albicans; Candida albicans CA3): 8 µg/mL (≈ 3.96 µM)
MIC values (μg/ml) 100% (Candida albicans; Candida albicans SC5314): 8 µg/mL (≈ 3.96 µM)
MIC values (μg/ml) 100% (Candida auris; Candida auris DI17-46): 8 µg/mL (≈ 3.96 µM)
MIC values (μg/ml) 100% (Candida auris; Candida auris DI17-47): 8 µg/mL (≈ 3.96 µM)
MIC values (μg/ml) 100% (Candida auris; Candida auris DI17-48): 8 µg/mL (≈ 3.96 µM)
MIC values (μg/ml) 100% (Aspergillus fumigatus): 32 µg/mL (≈ 15.9 µM)
